Among the data in US20230286958A1, “PLASMA KALLIKREIN INHIBITORS” (Merck Sharp & Dohme LLC, priority 2020, published 2023) are IC50 values, retold here.

In general, IC50 refers to the concentration at which inhibition is half-maximal. The low end stands for higher potency, the high end for lower potency.

The target of one test is human Factor XIa (Homo sapiens (Human), UniProt P03951). Kind of test: Factor XIa Assay (fluorogenic substrate GPR-AFC). The class given is biochemical. Conditions: Factor XIa (FXIa).
human Factor XIa, sequence (P03951 388-625 limits assumed): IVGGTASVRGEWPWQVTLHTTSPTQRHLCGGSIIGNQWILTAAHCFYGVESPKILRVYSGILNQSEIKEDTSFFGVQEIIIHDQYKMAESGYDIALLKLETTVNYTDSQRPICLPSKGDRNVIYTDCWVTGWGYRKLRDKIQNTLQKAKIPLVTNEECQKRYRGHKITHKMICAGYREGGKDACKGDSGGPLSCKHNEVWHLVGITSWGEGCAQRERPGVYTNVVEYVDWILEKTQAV
human Factor XIa, sequence (P03951 19-387 partner limits assumed): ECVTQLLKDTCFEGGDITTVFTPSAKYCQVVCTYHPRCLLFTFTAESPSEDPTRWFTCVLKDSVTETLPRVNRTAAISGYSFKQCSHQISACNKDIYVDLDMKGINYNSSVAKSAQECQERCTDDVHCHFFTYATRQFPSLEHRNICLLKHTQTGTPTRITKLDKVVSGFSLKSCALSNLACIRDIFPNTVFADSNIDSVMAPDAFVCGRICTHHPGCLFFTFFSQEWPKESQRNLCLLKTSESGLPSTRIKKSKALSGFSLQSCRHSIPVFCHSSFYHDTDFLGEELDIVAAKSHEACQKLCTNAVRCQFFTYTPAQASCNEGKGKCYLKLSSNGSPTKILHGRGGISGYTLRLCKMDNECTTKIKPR
Another test concerns the target Human plasma kallikrein (Homo sapiens (Human), UniProt P03952). Kind of test: Kallikrein Assay (fluorogenic substrate Acetyl-K-P-R-AFC). Type of test: biochemical. Particulars: Plasma Kallikrein (PKal). Put shortly:
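Ki is derived from IC50 with the Cheng-Prusoff equation, and IC50 from the inflection point of a four-parameter logistic curve. The rate of AFC release is read with 0.5 nM purified enzyme and […] substrate at room temperature or 37 °C.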

Human plasma kallikrein, sequence (P03952 391-638): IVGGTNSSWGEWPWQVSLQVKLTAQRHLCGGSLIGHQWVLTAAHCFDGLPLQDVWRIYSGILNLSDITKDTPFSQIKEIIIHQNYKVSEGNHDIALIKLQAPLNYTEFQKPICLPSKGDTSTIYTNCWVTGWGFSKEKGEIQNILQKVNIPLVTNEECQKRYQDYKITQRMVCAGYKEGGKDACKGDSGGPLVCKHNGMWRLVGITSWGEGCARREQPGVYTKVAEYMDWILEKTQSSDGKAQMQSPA
Human plasma kallikrein, sequence (P03952 20-390 partner): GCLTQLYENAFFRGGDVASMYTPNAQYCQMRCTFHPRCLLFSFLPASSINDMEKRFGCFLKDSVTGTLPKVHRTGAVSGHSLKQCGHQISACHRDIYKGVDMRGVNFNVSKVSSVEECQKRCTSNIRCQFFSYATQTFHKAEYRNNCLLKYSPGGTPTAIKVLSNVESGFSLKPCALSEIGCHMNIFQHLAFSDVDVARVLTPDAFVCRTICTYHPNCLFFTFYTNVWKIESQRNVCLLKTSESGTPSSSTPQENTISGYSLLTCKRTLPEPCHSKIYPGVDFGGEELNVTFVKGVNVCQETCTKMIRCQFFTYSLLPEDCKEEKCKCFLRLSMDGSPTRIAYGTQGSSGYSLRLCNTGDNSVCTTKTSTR

Regarding `CC(c1ccc(N2C[C@H]3C[C@H]3C2=O)nc1)n1cc(NC(=O)c2cncc(-c3c(C#N)ccc(Cl)c3F)n2)cn1` (single isomer, unassigned) [Example 90, 6-(3-Chloro-6-cyano-2-fluorophenyl)-N-(1-((R or S)-1-(6-((1R,SS)-2-oxo-3-azabicyclo[3.1.0]hexan-3-yl)pyridin-3-yl)ethyl)-1H-pyrazol-4-yl)pyrazine-2-carboxamide], the values for the IC50 at human Factor XIa and against Human plasma kallikrein were above 10 µM and 0.0137 µM, respectively.
The like results for `Cc1cc(C(C)n2cc(NC(=O)c3nc(-c4c(C#N)ccc(Cl)c4F)cnc3C)cn2)nnc1N1C[C@H]2C[C@H]2C1=O` (single isomer, unassigned) [Example 237, 6-(3-Chloro-6-cyano-2-fluorophenyl)-3-methyl-N-(1-((S or R)-1-(5-methyl-6-((1R,5S)-2-oxo-3-azabicyclo[3.1.0]hexan-3-yl)pyridazin-3-yl)ethyl)-1H-pyrazol-4-yl)pyrazine-2-carboxamide] were, in that order, 0.561 µM and 0.0043 µM.
The like results for `Cc1ncc(-c2c(C(F)F)ccc(Cl)c2F)nc1C(=O)Nc1cnn(Cc2ncc(N3C[C@H]4C[C@H]4C3=O)c(C)c2F)c1` [Example 215, 6-(3-Chloro-6-(difluoromethyl)-2-fluorophenyl)-N-(1-((3-fluoro-4-methyl-5-((1R,5S)-2-oxo-3-azabicyclo[3.1.0]hexan-3-yl)pyridin-2-yl)methyl)-1H-pyrazol-4-yl)-3-methylpyrazine-2-carboxamide] were, in that order, above 10 µM and 0.0078 µM.
`Cc1ncc(-c2c(C(F)F)ccc(Cl)c2F)nc1C(=O)Nc1cnn(C(C)c2ncc(N3C[C@H]4C[C@H]4C3=O)c(C)c2F)c1` (single isomer, unassigned) [Example 245, 6-(3-Chloro-6-(difluoromethyl)-2-fluorophenyl)-N-(1-((S or R)-1-(3-fluoro-4-methyl-5-((1R,5S)-2-oxo-3-azabicyclo[3.1.0]hexan-3-yl)pyridin-2-yl)ethyl)-1H-pyrazol-4-yl)-3-methylpyrazine-2-carboxamide]: the concentration for half-maximal inhibition (IC50) is above 10 µM at human Factor XIa and 0.0009 µM against Human plasma kallikrein.
The like results for `Cc1ncc(-c2c(C(F)F)ccc(Cl)c2F)nc1C(=O)Nc1cnn(C(C)c2cnc(N3C[C@H]4C[C@H]4C3=O)c(F)c2)c1` (single isomer, unassigned) [Example 51, 6-(3-Chloro-6-(difluoromethyl)-2-fluorophenyl)-N-(1-((S or R)-1-(5-fluoro-6-((1R,SS)-2-oxo-3-azabicyclo[3.1.0]hexan-3-yl)pyridin-3-yl)ethyl)-1H-pyrazol-4-yl)-3-methylpyrazine-2-carboxamide] were, in that order, 1.38 µM and 0.0024 µM.
The matching figures for `Cc1cc(C(C)n2cc(NC(=O)c3cc(-c4c(C(F)F)ccc(Cl)c4F)c[n+]([O-])c3)cn2)cnc1N1C[C@H]2C[C@H]2C1=O` (single isomer, unassigned) [Example 107, 5-(3-Chloro-6-(difluoromethyl)-2-fluorophenyl)-N-(1-((R or S)-1-(5-methyl-6-((1R,5S)-2-oxo-3-azabicyclo[3.1.0]hexan-3-yl)pyridin-3-yl)ethyl)-1H-pyrazol-4-yl)-1-(l1-oxidanyl)-114-pyridine-3-carboxamide]: 0.26 µM and 0.0015 µM.
The matching figures for `Cc1nc(N2C[C@H]3C[C@H]3C2=O)ncc1Cn1ncc(NC(=O)c2nc(-c3c(C(F)F)ccc(Cl)c3F)cnc2C)n1` [Example 184, 6-(3-Chloro-6-(difluoromethyl)-2-fluorophenyl)-3-methyl-N-(2-((4-methyl-2-((1R,5S)-2-oxo-3-azabicyclo[3.1.0]hexan-3-yl)pyrimidin-5-yl)methyl)-2H-1,2,3-triazol-4-yl)pyrazine-2-carboxamide]: 7.73 µM and 0.0081 µM.
`Cc1nc(Cn2cc(NC(=O)c3nc(-c4c(C(F)F)ccc(Cl)c4F)cnc3C)cn2)ncc1N1C[C@H]2C[C@H]2C1=O` [Example 93, 6-(3-Chloro-6-(difluoromethyl)-2-fluorophenyl)-3-methyl-N-(1-((4-methyl-5-((1R,5S)-2-oxo-3-azabicyclo[3.1.0]hexan-3-yl)pyrimidin-2-yl)methyl)-1H-pyrazol-4-yl)pyrazine-2-carboxamide]: the IC50 on human Factor XIa was above 10 µM; against Human plasma kallikrein, 0.0199 µM.
The matching figures for `Cc1c(C(C)n2cc(NC(=O)c3cncc(-c4c(OC(F)F)ccc(Cl)c4F)n3)cn2)cnc(N2C[C@H]3C[C@H]3C2=O)c1C` (single isomer, unassigned) [Example 105, 6-(3-Chloro-6-(difluoromethoxy)-2-fluorophenyl)-N-(1-((R or S)-1-(4,5-dimethyl-6-((1R,5S)-2-oxo-3-azabicyclo[3.1.0]hexan-3-yl)pyridin-3-yl)ethyl)-1H-pyrazol-4-yl)pyrazine-2-carboxamide]: 0.101 µM and 0.0006 µM.
The matching figures for `CC(c1ccc(N2C[C@H]3C[C@H]3C2=O)nc1)n1cc(NC(=O)c2cncc(-c3c(C#N)ccc(Cl)c3F)n2)cn1` (single isomer, unassigned) [Example 89, 6-(3-Chloro-6-cyano-2-fluorophenyl)-N-(1-((S or R)-1-(6-((1R,5S)-2-oxo-3-azabicyclo[3.1.0]hexan-3-yl)pyridin-3-yl)ethyl)-1H-pyrazol-4-yl)pyrazine-2-carboxamide]: above 10 µM and 0.0313 µM.
On to `Cc1nc(N2CCN(C)C2=O)ncc1[C@H](C)n1cc(NC(=O)c2nc(-c3c(C(F)F)ccc(Cl)c3F)cnc2C)cn1` [Example 207, (S)-6-(3-Chloro-6-(difluoromethyl)-2-fluorophenyl)-3-methyl-N-(1-(1-(4-methyl-2-(3-methyl-2-oxoimidazolidin-1-yl)pyrimidin-5-yl)ethyl)-1H-pyrazol-4-yl)pyrazine-2-carboxamide], for which the IC50 against human Factor XIa was determined as 3.27 µM; at Human plasma kallikrein, 0.0086 µM.
Take `CC(c1cnc(N2C[C@H]3C[C@H]3C2=S)nc1)n1cc(NC(=O)c2cncc(-c3c(C(F)F)ccc(Cl)c3F)n2)cn1` (single isomer, unassigned) [Example 32, 6-(3-Chloro-6-(difluoromethyl)-2-fluorophenyl)-N-(1-((R or S)-1-(2-((1R,5S)-2-thioxo-3-azabicyclo[3.1.0]hexan-3-yl)pyrimidin-5-yl)ethyl)-1H-pyrazol-4-yl)pyrazine-2-carboxamide]: the IC50 was above 10 µM against human Factor XIa and 0.0164 µM against Human plasma kallikrein.
The matching figures for `Cc1ncc(-c2c(C(F)F)ccc(Cl)c2F)nc1C(=O)Nc1cnn(C(C)c2cnc(N3C[C@H]4C[C@H]4C3=O)c(Cl)c2)c1` (stereo partly drawn) [Example 92, N-(1-((S)-1-(5-chloro-6-((1R,5S)-2-oxo-3-azabicyclo[3.1.0]hexan-3-yl)pyridin-3-yl)ethyl)-1H-pyrazol-4-yl)-6-(3-chloro-6-(difluoromethyl)-2-fluorophenyl)-3-methylpyrazine-2-carboxamide]: 0.577 µM and 0.0013 µM.
In the case of `Cc1nc(C(C)n2cc(NC(=O)c3nc(-c4c(C(F)F)ccc(Cl)c4F)cnc3CO)cn2)cnc1N1C[C@H]2C[C@H]2C1=O` (single isomer, unassigned) [Example 197, 6-(3-Chloro-6-(difluoromethyl)-2-fluorophenyl)-3-(hydroxymethyl)-N-(1-((S or R)-1-(6-methyl-5-((1R,5S)-2-oxo-3-azabicyclo[3.1.0]hexan-3-yl)pyrazin-2-yl)ethyl)-1H-pyrazol-4-yl)pyrazine-2-carboxamide], the half-inhibitory concentration (IC50) was 0.048 µM on human Factor XIa and 0.0002 µM against Human plasma kallikrein.
The matching figures for `Cc1ncc(-c2c(C(F)F)ccc(Cl)c2F)nc1C(=O)Nc1cnn(C(C)c2cnc(N3C[C@H]4C[C@H]4C3=O)c3c2OCO3)c1` (single isomer, unassigned) [Example 252, 6-(3-Chloro-6-(difluoromethyl)-2-fluorophenyl)-3-methyl-N-(1-((R or S)-1-(4-((1R,5S)-2-oxo-3-azabicyclo[3.1.0]hexan-3-yl)-[1,3]dioxolo[4,5-c]pyridin-7-yl)ethyl)-1H-pyrazol-4-yl)pyrazine-2-carboxamide]: 1.83 µM and 0.0009 µM.
The matching figures for `CCc1ncc(-c2c(C(F)F)ccc(Cl)c2F)nc1C(=O)Nc1cnn(Cc2cnc(N3C[C@H]4C[C@H]4C3=O)c3c2OCO3)c1` [Example 255, 6-(3-Chloro-6-(difluoromethyl)-2-fluorophenyl)-3-ethyl-N-(1-((4-((1R,5S)-2-oxo-3-azabicyclo[3.1.0]hexan-3-yl)-[1,3]dioxolo[4,5-c]pyridin-7-yl)methyl)-1H-pyrazol-4-yl)pyrazine-2-carboxamide]: 0.734 µM and 0.0026 µM.
The like results for `CC(O)c1ncc(-c2c(C(F)F)ccc(Cl)c2F)nc1C(=O)Nc1cnn(Cc2cnc(N3C[C@H]4C[C@H]4C3=O)c3c2OCO3)c1` (single isomer, unassigned) [Example 254, 6-(3-Chloro-6-(difluoromethyl)-2-fluorophenyl)-3-((R or S)-1-hydroxyethyl)-N-(1-((4-((1R,5S)-2-oxo-3-azabicyclo[3.1.0]hexan-3-yl)-[1,3]dioxolo[4,5-c]pyridin-7-yl)methyl)-1H-pyrazol-4-yl)pyrazine-2-carboxamide] were, in that order, 0.157 µM and 0.0014 µM.
As to `CCc1ncc(-c2c(C(F)F)ccc(Cl)c2F)nc1C(=O)Nc1cnn(C(C)c2cc(C)c(N3C[C@H]4C[C@H]4C3=O)nn2)c1` (single isomer, unassigned) [Example 239, 6-(3-Chloro-6-(difluoromethyl)-2-fluorophenyl)-3-ethyl-N-(1-((S or R)-1-(5-methyl-6-((1R,5S)-2-oxo-3-azabicyclo[3.1.0]hexan-3-yl)pyridazin-3-yl)ethyl)-1H-pyrazol-4-yl)pyrazine-2-carboxamide], the values for the IC50 at human Factor XIa and against Human plasma kallikrein were 1.23 µM and 0.0018 µM, respectively.
